The results in this text go back to US8163909B2, “Substituted hydroxyethyl amine compounds as beta-secretase modulators and methods of use” (Amgen Inc., priority 2007, dated 2012).

The nature of data set [1]: Microsomal stability assay, human liver microsomes. (Liver microsomes are a subcellular fraction often used to study metabolism.)
For another data set, the target named is CYP3A4 (CYP3A) (Homo sapiens, UniProt P08684). Briefly: in vitro. To be noted: microsomes, pH 7.4.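 Note: inhibition of CYP3A-mediated 1-hydroxymidazolam formation after 10 min incubation with NADPH, quantified by HPLC MS relative to metabolite produced without test compound.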
Chain of CYP3A4 (CYP3A) (P08684 2-503): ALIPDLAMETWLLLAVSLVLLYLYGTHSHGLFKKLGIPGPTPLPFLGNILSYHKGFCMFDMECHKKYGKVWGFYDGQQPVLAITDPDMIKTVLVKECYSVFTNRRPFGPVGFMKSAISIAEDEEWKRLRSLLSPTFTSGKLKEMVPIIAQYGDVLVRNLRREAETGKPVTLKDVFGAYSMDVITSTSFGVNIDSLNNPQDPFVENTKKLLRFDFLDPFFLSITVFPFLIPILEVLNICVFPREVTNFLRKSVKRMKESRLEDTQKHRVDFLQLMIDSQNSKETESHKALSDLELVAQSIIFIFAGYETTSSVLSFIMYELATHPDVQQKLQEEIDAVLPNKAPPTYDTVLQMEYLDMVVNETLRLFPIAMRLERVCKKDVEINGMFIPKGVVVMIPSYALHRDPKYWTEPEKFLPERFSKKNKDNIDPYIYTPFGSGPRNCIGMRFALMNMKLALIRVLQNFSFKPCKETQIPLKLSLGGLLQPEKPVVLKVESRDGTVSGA
Data set [2] relates to Aβ40 in conditioned medium of cells stably expressing Amyloid Precursor Protein (APP). Briefly: In vitro BACE cell-based assay (Aβ40 in conditioned medium, sandwich ELISA).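 For all read-outs here: compounds added as a dilution series, secreted peptide quantified by europium time-resolved fluorescence readout, potency fitted from percent of control versus compound concentration.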 To be noted: Homo sapiens; for IC50: HEK293, HEK cell-based assay, IC50's in uM. (ELISA stands for enzyme-linked immunosorbent assay.)
The nature of data set [3]: Microsomal stability assay, rat liver microsomes.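 Note: rat liver microsomes (0.25 mg/mL) with about 1 µM compound plus 1 mM NADPH, pH 7.4, 37 °C for 30 min, parent left measured by LC-MS/MS against 0 min.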
Data set [4] has as its target Beta Secretase enzyme (BACE) (Homo sapiens, UniProt P56817). Briefly: In vitro enzymatic BACE FRET (fluorescence resonance energy transfer) assay.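 For all read-outs here: fluorescence read after 1 h with 50 nM quenched peptide substrate spanning the BACE cleavage site, in pH 4.2 acetate buffer containing 10% DMSO and nonionic detergent.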 Type of data set: biochemical. Particulars: for IC50: IC50's in uM.
A further data set concerns the target CYP2D6 (Homo sapiens, UniProt P10635). Briefly: CYP2D6 inhibition assay (bufuralol, pooled human liver microsomes). To be noted: for IC50: 2D6 IC50 (uM).
Setting [5] is: HEK293, HEK cells, read-out: HEK cell assay (IC50).
The mark [6] stands for this setting: read-out: BACE1 FRET assay (IC50).
Where [7] appears, read: HEK293, HEK cell-based assay IC50, read-out: HEK cell assay.
The mark [8] stands for this setting: BACE enzyme assay IC50, read-out: BACE1 FRET assay.
Setting [9] is: HEK293, HEK cells, read-out: HEK cell assay.
The mark [10] stands for this setting: BACE enzyme assay, read-out: BACE1 FRET assay.
The mark [11] stands for this setting: HEK293, Table 2, HEK cells, read-out: HEK cell assay.
Setting [12] is: Table 2, read-out: BACE1 FRET assay.
Setting [13] is: 2D6 IC50, CYP enzyme inhibition.

Molecules are shown by their SMILES. pIC50: −log10 of the molar value. Like-named read-outs stand apart in the source and are kept apart here.
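Throughout, for HLM: pooled human liver microsomes at 0.25 mg/mL with 1 µM compound and NADPH at 37 °C, pH 7.4, for 30 min, unchanged parent quantified by LC-MS/MS against the 0 min sample.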

Chain of CYP2D6 (P10635 whole entry): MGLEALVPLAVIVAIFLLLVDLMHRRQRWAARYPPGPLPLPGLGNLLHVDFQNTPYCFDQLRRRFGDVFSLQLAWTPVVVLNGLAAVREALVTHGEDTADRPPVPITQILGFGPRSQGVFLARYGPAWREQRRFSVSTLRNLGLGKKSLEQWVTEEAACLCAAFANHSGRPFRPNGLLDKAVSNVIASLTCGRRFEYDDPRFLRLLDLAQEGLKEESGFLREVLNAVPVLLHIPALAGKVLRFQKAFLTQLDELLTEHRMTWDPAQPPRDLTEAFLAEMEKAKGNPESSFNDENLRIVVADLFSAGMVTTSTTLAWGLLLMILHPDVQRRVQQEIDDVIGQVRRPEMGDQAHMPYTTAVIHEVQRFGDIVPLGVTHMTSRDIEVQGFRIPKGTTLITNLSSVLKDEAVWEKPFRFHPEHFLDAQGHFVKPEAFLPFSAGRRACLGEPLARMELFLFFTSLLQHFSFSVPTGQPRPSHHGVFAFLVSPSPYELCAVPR
Chain of Beta Secretase enzyme (BACE) (P56817 46-501): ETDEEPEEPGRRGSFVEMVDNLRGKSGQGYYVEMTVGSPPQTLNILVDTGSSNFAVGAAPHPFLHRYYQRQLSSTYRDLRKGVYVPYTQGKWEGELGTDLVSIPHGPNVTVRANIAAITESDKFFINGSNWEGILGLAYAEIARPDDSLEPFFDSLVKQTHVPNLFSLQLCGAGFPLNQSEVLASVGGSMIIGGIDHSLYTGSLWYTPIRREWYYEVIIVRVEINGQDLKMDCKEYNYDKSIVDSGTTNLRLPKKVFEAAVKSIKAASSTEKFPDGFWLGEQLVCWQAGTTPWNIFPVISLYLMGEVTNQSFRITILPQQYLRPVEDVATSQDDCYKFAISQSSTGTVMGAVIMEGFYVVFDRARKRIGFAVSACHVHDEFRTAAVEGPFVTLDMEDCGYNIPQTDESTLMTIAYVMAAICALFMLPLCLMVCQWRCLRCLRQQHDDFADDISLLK

`CO[C@H](C)C(=O)N[C@@H](Cc1ccccc1)[C@H](O)CN[C@H]1CC2(CCC2)Oc2c(-c3cncn3C)cc(CC(C)C)cc21` [compound 634] gave an HLM in data set [1] (human liver microsomes) of 50 µL/min/mg. Moreover, the pIC50 is 7.00 against CYP3A4 (CYP3A); 7.85 in data set [2] (setting [5]); 6.90 in data set [4] (setting [6]); 5.35 at CYP2D6 (2D6 IC50, CYP2D6 inhibition). In data set [3] (rat liver microsomes), this compound had an RLM of 340 µL/min/mg.
Turning to `COCC(=O)N[C@@H](Cc1cccc(F)c1)[C@H](O)CN[C@H]1CC2(CCC2)Oc2c(-c3ccnc(N(C)C)c3)cc(CC(C)(C)C)cc21` [Example 439, N-((1S,2R)-3-(((4S)-8-(2-(dimethylamino)-4-pyridinyl)-6-(2,2-dimethylpropyl)-3,4-dihydrospiro[chromene-2,1′-cyclobutan]-4-yl)amino)-1-(3-fluorobenzyl)-2-hydroxypropyl)-2-methoxyacetamide], the “HLM” value in data set [1] (human liver microsomes) was determined as 601 µL/min/mg. In addition, the pIC50 was 5.89 at CYP3A4 (CYP3A), 8.30 in data set [2] (setting [7]) and 7.70 in data set [4] (setting [8]). Further, the “RLM” value in data set [3] (rat liver microsomes) amounted to 515 µL/min/mg. The IC50 at CYP2D6 (CYP2D6 inhibition) worked out at 4.1 µM.
In the case of `COCC(=O)N[C@@H](Cc1cc(F)cc(F)c1)[C@H](O)CN[C@H]1CC2(CCC2)Oc2c(-c3cncs3)cc(CC(C)C)cc21` [compound 490], in data set [1] (human liver microsomal data), the “HLM” value worked out at 344 µL/min/mg. For the same compound, the pIC50 on CYP3A4 (CYP3A) is 6.70; in data set [2] (setting [9]), 7.54; in data set [4] (setting [10]) it was 8.52. Moreover, the “RLM” value in data set [3] (rat liver microsomal data) is 249 µL/min/mg. The IC50 against CYP2D6 (CYP enzyme inhibition) is 7.5 µM.
In the case of `COCC(=O)N[C@@H](Cc1ccc(F)cc1)[C@H](O)CN[C@H]1CC2(CCC2)Oc2c1cc(CC(C)(C)C)nc2Nc1ccccc1` [compound 612], the HLM in data set [1] (human liver microsomes) amounted to 176 µL/min/mg. Moreover, the pIC50 was at most 4.57 at CYP3A4 (CYP3A); under 5.00 in data set [2] (setting [5]); 6.68 in data set [4] (setting [6]); at most 4.57 against CYP2D6 (2D6 IC50, CYP2D6 inhibition). Moreover, in data set [3] (rat liver microsomes), the RLM worked out at 245 µL/min/mg.
For the compound `CO[C@H](C)C(=O)N[C@@H](Cc1cncs1)[C@H](O)CN[C@H]1CC2(CCC2)Oc2ncc([C@@H]3CC3(C)C)cc21` [compound 794], in data set [1] (human liver microsomal data), the “HLM” value stood at 205 µL/min/mg. This compound also showed a pIC50 against CYP3A4 (CYP3A) of 6.30. Moreover, the values for the IC50 (in data set [2] (read-out: HEK cell assay); in data set [4] (setting [10]); against CYP2D6 (CYP enzyme inhibition)) were 0.009 µM, 0.005 µM and 9.8 µM, respectively. Moreover, in data set [3] (rat liver microsomal data), the “RLM” value was 132 µL/min/mg.
In data set [1] (human liver microsomal data), `CC(=O)C(C)(C)C(=O)N[C@@H](Cc1cccc(F)c1)[C@H](O)CN[C@H]1CC2(CCC2)Oc2ncc(CC(C)(C)C)cc21` [compound 467] showed an HLM of 399 µL/min/mg. Moreover, the pIC50 at CYP3A4 (CYP3A) was 6.40; in data set [2] (setting [11]), 6.68; in data set [4] (setting [12]), 7.20; against CYP2D6 (setting [13]), 5.14. For the same compound, the RLM in data set [3] (rat liver microsomal data) amounted to 292 µL/min/mg.
With `CCO[C@@H](C)C(=O)N[C@@H](Cc1ccc2c(c1)OCO2)[C@H](O)CN[C@H]1CC2(CCC2)Oc2ncc(CC(C)C)cc21` [compound 809], the “HLM” value in data set [1] (human liver microsomal data) is 33 µL/min/mg. Besides, the pIC50 against CYP3A4 (CYP3A) was 6.70. In addition, the IC50 is 0.513 µM in data set [2] (read-out: HEK cell assay), 0.269 µM in data set [4] (setting [10]) and 6.7 µM against CYP2D6 (CYP enzyme inhibition). Also, the “RLM” value in data set [3] (rat liver microsomal data) turned out to be 117 µL/min/mg.
In the case of `COCC(=O)N[C@@H](Cc1cc(F)cc(F)c1)[C@H](O)CN[C@H]1CC2(CCC2)Oc2c(-c3cnc[nH]3)cc(CC(C)C)cc21` [compound 480], the HLM in data set [1] (human liver microsomal data) worked out at 272 µL/min/mg. The pIC50 against CYP3A4 (CYP3A) is 6.30; in data set [2] (setting [11]) it was 8.22; in data set [4] (setting [12]) it was 7.64; against CYP2D6 (setting [13]) it was 5.00. This compound also showed an RLM in data set [3] (rat liver microsomal data) of 405 µL/min/mg.
Take `COCC(=O)N[C@@H](Cc1cccc(-c2nccs2)c1)[C@H](O)CN[C@@H]1C[C@@]2(CCOC2)Oc2ncc(CC(C)(C)C)cc21` [compound 827, N-((1S,2R)-3-(((3S,4′R)-6′-(2,2-dimethylpropyl)-3′,4,4′,5-tetrahydrospiro[furan-3,2′-pyrano[2,3-b]pyridin]-4′-yl)amino)-2-hydroxy-1-(3-(1,3-thiazol-2-yl)benzyl)propyl)-2-methoxyacetamide]: the “HLM” value in data set [1] (human liver microsomal data) amounted to 97 µL/min/mg. The same compound showed a pIC50 on CYP3A4 (CYP3A) of 6.30. The IC50 was found to be 0.007 µM in data set [2] (read-out: HEK cell assay), 0.006 µM in data set [4] (setting [10]) and 2.1 µM on CYP2D6 (CYP enzyme inhibition). For the same compound, the “RLM” value in data set [3] (rat liver microsomal data) was 197 µL/min/mg.
Take `CC(=O)N[C@@H](Cc1ccc(-c2cncs2)cc1)[C@H](O)CN[C@H]1CC2(CCC2)Oc2ncc(CC(C)(C)C)cc21` [compound 694]: the “HLM” value in data set [1] (human liver microsomes) is 82 µL/min/mg. In addition, the pIC50 is 6.70 at CYP3A4 (CYP3A), 7.15 in data set [2] (setting [7]) and 7.13 in data set [4] (setting [8]). For the same compound, the “RLM” value in data set [3] (rat liver microsomes) is 66 µL/min/mg. This compound also registered an IC50 against CYP2D6 (CYP2D6 inhibition) of 0.3 µM.
On to `CO[C@H](C)C(=O)N[C@@H](Cc1cc(F)cc(F)c1)[C@H](O)CN[C@H]1CC2(CCC2)Oc2c(-c3nccs3)cc(CC(C)C)cc21` [compound 459], for which the HLM in data set [1] (human liver microsomal data) worked out at 399 µL/min/mg. For the same compound, the pIC50 was 6.40 at CYP3A4 (CYP3A), 7.34 in data set [2] (setting [11]), 8.40 in data set [4] (setting [12]) and 4.99 on CYP2D6 (setting [13]). This compound also registered an RLM in data set [3] (rat liver microsomal data) of 399 µL/min/mg.
For the compound `C#Cc1cc(C[C@H](NC(=O)COC)[C@H](O)CN[C@H]2CC3(CCC3)Oc3ncc(CC(C)C)cc32)ccc1F` [compound 780, N-((1S,2R)-1-(3-ethynyl-4-fluorobenzyl)-2-hydroxy-3-(((4′S)-6′-(2-methylpropyl)-3′,4′-dihydrospiro[cyclobutane-1,2′-pyrano[2,3-b]pyridin]-4′-yl)amino)propyl)-2-methoxyacetamide], the “HLM” value in data set [1] (human liver microsomal data) is 61 µL/min/mg. Moreover, the pIC50 against CYP3A4 (CYP3A) was 7.00; against CYP2D6, 5.85. Further, the IC50 in data set [2] (read-out: HEK cell assay) came out at 0.032 µM; in data set [4] (setting [10]), 0.01 µM. For the same compound, the “RLM” value in data set [3] (rat liver microsomal data) came to 74 µL/min/mg.
In the case of `COCC(=O)N[C@@H](Cc1ccc(F)c(-c2nccs2)c1)[C@H](O)CN[C@H]1CC2(CCC2)Oc2ncc(CC(C)C)cc21` [compound 727], the “HLM” value in data set [1] (human liver microsomes) is 45 µL/min/mg. The figures for the pIC50 (against CYP3A4 (CYP3A); in data set [2] (setting [7]); in data set [4] (setting [8])) were at least 7.52, 7.64 and 7.96, respectively. In data set [3] (rat liver microsomes), the “RLM” value was determined as 74 µL/min/mg. Moreover, the IC50 against CYP2D6 (CYP2D6 inhibition) came out at 0.5 µM.
`CO[C@H](C)C(=O)N[C@@H](Cc1ccc2c(c1)OCO2)[C@H](O)CN[C@H]1CC2(CCC2)Oc2ncc([C@H]3CC3(C)C)cc21` [compound 580] yielded an HLM in data set [1] (human liver microsomes) of 42 µL/min/mg. In addition, the pIC50 at CYP3A4 (CYP3A) was 7.00; in data set [2] (setting [5]) it was 6.11; in data set [4] (setting [6]), 6.45; at CYP2D6 (2D6 IC50, CYP2D6 inhibition) it was 5.36. The compound also registered an RLM in data set [3] (rat liver microsomes) of 186 µL/min/mg.
In data set [1] (human liver microsomal data), `COCC(=O)N[C@@H](Cc1ccc(F)cc1)[C@H](O)CN[C@H]1CC2(CCC2)Oc2nc(C)c(CC(C)(C)C)cc21` [compound 468] registered an HLM of 736 µL/min/mg. In addition, the pIC50 at CYP3A4 (CYP3A) was 6.30; in data set [2] (setting [11]), 6.97; in data set [4] (setting [12]), 7.01; at CYP2D6 (setting [13]) it was 5.02. Besides, in data set [3] (rat liver microsomal data), the RLM turned out to be 662 µL/min/mg.
Regarding `COCC(=O)N[C@@H](Cc1ccc(F)cc1)[C@H](O)CN[C@H]1CC2(CCC2)Oc2c1cc(CC(C)(C)C)nc2-c1ccncc1` [compound 549], the “HLM” value in data set [1] (human liver microsomal data) stood at 38 µL/min/mg. Also, the figures for the pIC50 (on CYP3A4 (CYP3A); in data set [2] (setting [9]); in data set [4] (setting [10])) were 7.00, 6.53 and 7.15, respectively. Besides, the “RLM” value in data set [3] (rat liver microsomal data) was 122 µL/min/mg. For the same compound, the IC50 against CYP2D6 (CYP enzyme inhibition) amounted to 2 µM.
